Laboratory results from ChEMBL document CHEMBL5365520, “Unlocking DCAFs To Catalyze Degrader Development: An Arena for Innovative Approaches” (J Med Chem, 2023).

Key:
[1] = target: T1, DDB1- and CUL4-associated factor 16/Bromodomain-containing protein 4 (Homo sapiens, UniProt O60885+Q9NXF7); assay: PROTAC activity at DCAF16/BRD4 in human PC-3 cells assessed as maximal degradation relative to control; format: cell-based
[2] = target: T1, DDB1- and CUL4-associated factor 16/Bromodomain-containing protein 4; assay: PROTAC activity at DCAF16/BRD4 in human PC-3 cells assessed as reduction in protein degradation; format: cell-based
DCAF1-BRD9 = DCAF1-BRD9 (Homo sapiens, UniProt Q9H8M2+Q9Y4B6); assay: PROTAC activity at DCAF1/BRD9 in HEK293T cells co expressing HiBit/FF/CAS9 assessed as reduction of protein degradation measured after 6 hrs by immunoblotting analysis; format: cell-based
DCAF1-BRD9, sequence (Q9H8M2 whole entry, the tested form may be a part): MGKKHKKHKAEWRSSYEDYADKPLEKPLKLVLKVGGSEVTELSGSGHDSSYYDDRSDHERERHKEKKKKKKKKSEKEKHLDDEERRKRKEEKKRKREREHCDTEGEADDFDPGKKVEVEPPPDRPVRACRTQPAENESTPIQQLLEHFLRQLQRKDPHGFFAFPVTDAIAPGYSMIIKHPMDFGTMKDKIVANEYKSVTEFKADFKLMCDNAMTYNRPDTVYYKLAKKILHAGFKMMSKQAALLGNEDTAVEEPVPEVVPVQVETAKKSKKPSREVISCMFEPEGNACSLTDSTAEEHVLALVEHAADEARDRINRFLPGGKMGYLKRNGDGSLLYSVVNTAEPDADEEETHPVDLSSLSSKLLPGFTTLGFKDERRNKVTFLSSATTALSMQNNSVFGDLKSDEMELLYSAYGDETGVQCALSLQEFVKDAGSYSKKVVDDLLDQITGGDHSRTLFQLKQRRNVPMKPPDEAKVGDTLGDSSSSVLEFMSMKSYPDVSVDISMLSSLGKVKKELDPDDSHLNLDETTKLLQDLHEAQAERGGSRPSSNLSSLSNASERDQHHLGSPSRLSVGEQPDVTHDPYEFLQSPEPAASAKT
DCAF1-BRD9, sequence (Q9Y4B6 whole entry, the tested form may be a part): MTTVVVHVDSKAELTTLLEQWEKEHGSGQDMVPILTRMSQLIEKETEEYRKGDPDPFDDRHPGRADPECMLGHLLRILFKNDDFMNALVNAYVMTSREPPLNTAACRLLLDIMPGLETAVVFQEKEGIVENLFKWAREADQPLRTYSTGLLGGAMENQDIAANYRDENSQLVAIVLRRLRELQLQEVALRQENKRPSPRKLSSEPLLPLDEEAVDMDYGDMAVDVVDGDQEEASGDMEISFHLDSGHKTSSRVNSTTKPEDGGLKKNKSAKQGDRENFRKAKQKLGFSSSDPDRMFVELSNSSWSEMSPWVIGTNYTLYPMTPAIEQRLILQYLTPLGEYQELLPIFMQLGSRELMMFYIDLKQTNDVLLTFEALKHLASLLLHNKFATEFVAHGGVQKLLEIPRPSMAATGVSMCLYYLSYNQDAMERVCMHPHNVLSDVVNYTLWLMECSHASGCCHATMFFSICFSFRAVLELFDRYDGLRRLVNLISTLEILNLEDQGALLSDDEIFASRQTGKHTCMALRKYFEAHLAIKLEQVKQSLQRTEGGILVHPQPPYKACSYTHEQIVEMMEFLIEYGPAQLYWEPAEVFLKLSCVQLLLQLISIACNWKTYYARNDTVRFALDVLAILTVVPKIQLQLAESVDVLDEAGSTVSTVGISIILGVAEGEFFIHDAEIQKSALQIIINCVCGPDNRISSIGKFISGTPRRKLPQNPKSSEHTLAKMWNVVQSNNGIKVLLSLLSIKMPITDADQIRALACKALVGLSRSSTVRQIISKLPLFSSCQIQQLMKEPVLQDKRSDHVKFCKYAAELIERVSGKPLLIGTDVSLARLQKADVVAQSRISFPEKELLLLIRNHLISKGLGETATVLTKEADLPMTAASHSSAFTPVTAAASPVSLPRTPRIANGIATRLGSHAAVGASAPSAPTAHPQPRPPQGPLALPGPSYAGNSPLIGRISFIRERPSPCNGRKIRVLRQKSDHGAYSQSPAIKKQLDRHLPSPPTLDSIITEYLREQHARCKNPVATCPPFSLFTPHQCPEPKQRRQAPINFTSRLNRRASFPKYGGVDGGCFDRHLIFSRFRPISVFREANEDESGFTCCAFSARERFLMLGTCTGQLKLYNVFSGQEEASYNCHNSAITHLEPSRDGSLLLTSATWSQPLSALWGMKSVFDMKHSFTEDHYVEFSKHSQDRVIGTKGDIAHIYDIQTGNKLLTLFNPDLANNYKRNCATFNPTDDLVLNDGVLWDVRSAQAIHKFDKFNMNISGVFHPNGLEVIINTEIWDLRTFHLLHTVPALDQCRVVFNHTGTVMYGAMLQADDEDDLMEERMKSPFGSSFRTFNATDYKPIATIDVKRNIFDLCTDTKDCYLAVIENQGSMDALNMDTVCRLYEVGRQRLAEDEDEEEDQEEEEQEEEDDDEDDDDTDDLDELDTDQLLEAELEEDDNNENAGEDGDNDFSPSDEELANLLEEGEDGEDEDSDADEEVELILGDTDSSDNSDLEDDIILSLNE

[3] = Binding affinity to biotinylated human DDA1/DDB1 (398 to 701 residues)/N-terminal His-ZZ-3C-tagged DCAF15/RBM39 RRM2 domain expressed in baculovirus infected Sf21 cells immobilized on SA chip assessed as dissociation constant by SPR analysis
[4] = Binding affinity to biotinylated human DDA1/DDB1 (398 to 701 residues)/N-terminal His-ZZ-3C-tagged DCAF15 expressed in baculovirus infected Sf21 cells immobilized on SA chip assessed as dissociation constant by SPR analysis
[5] = target: von Hippel-Lindau disease tumor suppressor/Bromodomain-containing protein 4 (Homo sapiens, UniProt O60885+P40337); assay: PROTAC activity at VHL/BRD4 in human LNCaP cells assessed as reduction in protein degradation measured after 6 hrs by Western blot analysis; format: cell-based
von Hippel-Lindau disease tumor suppressor/Bromodomain-containing protein 4, sequence (P40337 whole entry, looked up, other chains not shown): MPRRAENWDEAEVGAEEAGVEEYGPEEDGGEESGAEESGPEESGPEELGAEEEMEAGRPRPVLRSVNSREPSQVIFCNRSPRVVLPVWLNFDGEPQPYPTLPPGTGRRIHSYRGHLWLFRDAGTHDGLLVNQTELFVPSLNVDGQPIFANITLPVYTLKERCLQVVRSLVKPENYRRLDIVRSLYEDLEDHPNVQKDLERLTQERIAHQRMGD

[6] = target: DNA damage-binding protein 1 (Homo sapiens, UniProt Q16531); assay: Binding affinity to N-terminal His6-tagged human DDB1 expressed in baculovirus infected Hi-5 insect cells assessed as dissociation constant by SPR analysis
DNA damage-binding protein 1, sequence (Q16531 whole entry): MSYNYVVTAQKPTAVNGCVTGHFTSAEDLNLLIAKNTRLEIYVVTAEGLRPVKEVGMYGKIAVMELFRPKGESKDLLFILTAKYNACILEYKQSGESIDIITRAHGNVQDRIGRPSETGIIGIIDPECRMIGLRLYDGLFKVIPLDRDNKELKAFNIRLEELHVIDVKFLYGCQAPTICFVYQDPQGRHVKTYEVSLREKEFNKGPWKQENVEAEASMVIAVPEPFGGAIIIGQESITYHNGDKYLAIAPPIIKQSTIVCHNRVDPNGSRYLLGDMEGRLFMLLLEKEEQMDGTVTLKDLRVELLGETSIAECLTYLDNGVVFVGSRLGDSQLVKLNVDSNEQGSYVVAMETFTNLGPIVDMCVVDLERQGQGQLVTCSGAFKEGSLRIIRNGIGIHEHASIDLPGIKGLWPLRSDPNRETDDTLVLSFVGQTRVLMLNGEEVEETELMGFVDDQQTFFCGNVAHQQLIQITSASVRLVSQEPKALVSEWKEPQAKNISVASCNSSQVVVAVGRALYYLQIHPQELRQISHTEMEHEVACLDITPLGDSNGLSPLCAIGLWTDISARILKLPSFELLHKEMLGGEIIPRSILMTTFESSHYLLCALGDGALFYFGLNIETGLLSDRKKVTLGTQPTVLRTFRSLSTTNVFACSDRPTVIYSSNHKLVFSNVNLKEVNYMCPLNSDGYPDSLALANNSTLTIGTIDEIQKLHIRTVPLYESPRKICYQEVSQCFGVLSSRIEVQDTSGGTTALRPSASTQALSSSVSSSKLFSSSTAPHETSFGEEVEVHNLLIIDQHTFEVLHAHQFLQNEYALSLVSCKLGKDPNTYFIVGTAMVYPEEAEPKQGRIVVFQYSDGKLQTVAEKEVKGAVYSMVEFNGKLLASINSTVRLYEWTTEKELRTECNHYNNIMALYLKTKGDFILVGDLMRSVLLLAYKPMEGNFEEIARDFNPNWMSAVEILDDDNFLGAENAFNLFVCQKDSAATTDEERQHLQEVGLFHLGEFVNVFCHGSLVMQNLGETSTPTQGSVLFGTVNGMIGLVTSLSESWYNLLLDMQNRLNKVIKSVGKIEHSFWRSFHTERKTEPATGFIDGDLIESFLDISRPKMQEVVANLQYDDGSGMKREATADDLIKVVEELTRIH

[7] = target: DCAF11-BRD4 (Homo sapiens) (UniProt O60885+Q8TEB1); assay: PROTAC activity at DCAF11/BRD4 in HEK293T cells assessed as reduction of protein degradation at 1 uM measured after 24 hrs relative to control; format: cell-based; parameters: scale not given: the % may be the effect or the level left
DCAF11-BRD4 (Homo sapiens), sequence (Q8TEB1 whole entry, looked up, other chains not shown): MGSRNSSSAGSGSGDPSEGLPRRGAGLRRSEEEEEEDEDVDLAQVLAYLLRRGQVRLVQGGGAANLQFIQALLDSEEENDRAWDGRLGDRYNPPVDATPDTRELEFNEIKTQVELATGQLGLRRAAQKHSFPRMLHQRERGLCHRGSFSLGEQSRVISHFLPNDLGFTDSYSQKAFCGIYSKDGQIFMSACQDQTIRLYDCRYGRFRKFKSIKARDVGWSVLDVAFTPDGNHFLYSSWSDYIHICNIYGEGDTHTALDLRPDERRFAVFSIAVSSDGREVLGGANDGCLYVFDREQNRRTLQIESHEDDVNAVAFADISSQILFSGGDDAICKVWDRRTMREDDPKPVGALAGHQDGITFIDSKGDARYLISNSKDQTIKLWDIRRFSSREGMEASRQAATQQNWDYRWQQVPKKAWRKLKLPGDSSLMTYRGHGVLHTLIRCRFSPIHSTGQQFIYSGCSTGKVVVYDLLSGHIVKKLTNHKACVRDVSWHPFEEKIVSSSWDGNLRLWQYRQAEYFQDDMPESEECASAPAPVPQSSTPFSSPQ

T1 sequence (Q9NXF7 whole entry, looked up, other chains not shown): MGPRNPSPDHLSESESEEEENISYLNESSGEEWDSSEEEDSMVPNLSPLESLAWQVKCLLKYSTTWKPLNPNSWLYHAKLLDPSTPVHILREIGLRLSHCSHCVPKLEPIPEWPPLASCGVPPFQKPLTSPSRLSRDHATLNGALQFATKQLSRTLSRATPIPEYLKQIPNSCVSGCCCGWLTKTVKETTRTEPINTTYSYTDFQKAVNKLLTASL

SMILES: Cc1sc2c(c1C)C(c1ccc(C#CCN)cc1)=N[C@@H](CC(=O)OC(C)(C)C)c1nnc(C)n1-2
- Emax [1]: 84%
- DC50 [2]: 1.4 nM

SMILES: COc1cc(-c2cncc3c(=O)n(C)ccc23)c(OC)cc1CN1CCC(OCCCCCC(=O)N2CCN(c3ccc4c(NCCN)nc(C5(c6ccc(Cl)cc6)CCCCC5)nc4c3)CC2)CC1
- EC50 (DCAF1-BRD9): ~500 nM

SMILES: NS(=O)(=O)c1ccc(S(=O)(=O)Nc2cccc3c(Cl)c[nH]c23)cc1 [INDISULAM]
- Kd [3]: 135 nM
- Kd [4]: > 50000 nM

SMILES: Cc1sc2c(c1C)C(c1ccc(-c3ccc(C(=O)NCc4ccc(S(=O)(=O)Nc5ccc(C)c6c(C#N)c[nH]c56)cc4)cc3)cc1)=N[C@@H](CC(=O)OC(C)(C)C)c1nnc(C)n1-2
- EC50 [5]: 0.15 nM

SMILES: Cc1cc(NCCOCCOCCOCCOCCOCCN)ccc1C(=O)Nc1nc(C)c(C)s1
- Kd [6]: < 20000 nM

SMILES: Cc1sc2c(c1C)C(c1ccc(-c3cccc(NC(=O)c4cn5ccccc5n4)c3)cc1)=N[C@@H](CC(N)=O)c1nnc(C)n1-2
- Activity [7]: 95%
